Row | SMILES | melting point [°C]
1 | COC(=O)c1ccccc1OCc1ccc(COc2ccccc2C(=O)OC)cc1 | 115 to 120
2 | O=C1CCC(c2ccc(NC(=O)CCN3CCC(c4ccccc4)CC3)cc2)=NN1 | 238 to 240
3 | Fc1cc(C(Cl)(Cl)Cl)c(Cl)c(C(Cl)Cl)c1Cl | 74 to 76
4 | c1ccc2c(c1)CCn1ccnc1C2=C1CCN(CCn2cccc2)CC1 | 166
5 | COC(=O)c1c(-c2ccccc2)n[nH]c1C | 119 to 120
6 | O=C1N(CC(F)(F)F)C(=NCc2ccc(OC(F)(F)F)cc2)SCN1c1ccccc1 | 84 to 87
7 | C=Cc1cc(C(F)(F)F)ccc1-c1cc(Oc2cccc3sc(NC(C)=O)nc23)ncn1 | 234 to 237
8 | CN(C)c1cc2ccccn2n1 | 51 to 52
9 | COC(=O)c1ccc(CC(C)NCC(O)c2ccc(O)c(CO)c2)cc1O (configuration not stated) | 81 to 83
10 | NS(=O)(=O)c1ccc(-c2noc(-c3cnn4c(C5CC5)cc(-c5ccc(C(F)(F)F)cc5)nc34)n2)cc1 | 313
11 | Cc1c(CCc2ccc3nc(N)oc3c2)nc2cc(CN)ccn12 | 218 to 221
12 | CCOc1cc(-c2ccc(-c3ccc(N=Nc4ccccn4)c(OCC)c3)o2)ccc1N=Nc1ccccn1 | 205 to 210
13 | O=C1N(N2CCCCC2)c2ccccc2C1(Cc1ccncc1)c1ccccc1 (configuration not stated) | 128 to 131
14 | COC(=O)c1nc(Cl)c(F)c(N)c1I | 149 to 151
15 | CNC(=O)[C@H]1S[C@@H](n2cnc3c(NCc4cccc(I)c4)nc(Cl)nc32)[C@H](O)[C@@H]1O | 140 to 141
16 | COc1ccc(C(=O)NCCc2cccc(C)c2)cc1OC | 108 to 109
17 | COCCNC(=O)c1cccc(-c2cccc3cc(Cc4cc(F)cc(Cl)c4)sc23)c1F | 124 to 125
18 | COC(=O)c1ccc(S(C)(=O)=O)c(COc2ccnn2C)c1Cl | 70
19 | CCC(C)(C)N1CCNC(S(=O)(=O)Nc2ccc3[nH]c(C(=O)N4CCN(c5ncccc5NC(C)C)CC4)cc3c2)C1 (configuration not stated) | 158 to 160
20 | C=CCc1c(OCC=Cc2ccccc2)ccc2c1CCC(=O)N2CC=Cc1ccccc1 | 66 to 68
21 | COc1ccc2cc(-c3ccc(Cl)c(-n4nc(C)nc4C)c3)c(=O)oc2c1 | 210
22 | COC(=O)c1cc([N+](=O)[O-])c(Cl)c([N+](=O)[O-])c1 | 104 to 106
23 | CC(C)(C)OC(=O)N1CCN(c2cccc(N)c2)CC1 | 218
24 | CC(=NOCCO)c1ccc2ccccc2n1 | 89
25 | CCOC(=O)C(C#N)=Cc1cc(Oc2c(Cl)cc(C(F)(F)F)cc2Cl)ccc1[N+](=O)[O-] | 99

Row | SMILES | melting point [°C]
26 | CC(CC(=O)c1ccccc1)C(=O)N[C@@H](CS)C(=O)O (some centres not stated) | 78 to 105
27 | COc1ccc2c(-c3ccccc3)nc(=NO)c(=O)n(C)c2c1 | 206 to 207
28 | CC(=O)C1CCC2C3CCC4CC(O)C(N5CCOC(C)(C)C5)CC4(C)C3CCC12C (configuration not stated) | 174 to 176
29 | CN1CCc2sc(C=C3C(=O)N4C(C(=O)O)=CSC34)cc2C1 (configuration not stated) | > 25
30 | N[C@@H]1C(=O)Nc2ccccc2-c2ccccc21 | > 225
31 | CC12CC(=O)C3C(CCC4CC(O)CCC43C)C1CCC2C(=O)CCCl (configuration not stated) | 110 to 112
32 | CCCCCCCCCCCCCCCCOc1cc(OC)c([N+](=O)[O-])cc1OC | 71
33 | COP(=O)(Cc1cc(C(C)(C)C)c(O)c(C(C)(C)C)c1)OC | 155
34 | CCc1cc2c(SCC(=O)OC)ncnc2s1 | 36 to 58
35 | Cc1[nH]nc(CN2CCN(Cc3c[nH]c4ncccc34)CC2)c1-c1ccccc1 | 154 to 156
36 | COc1cc2c(cc1OC)C(Oc1ccc(C(F)(F)F)cc1)CN(CC#N)CC2 (configuration not stated) | 93 to 94
37 | FCc1cccc(C#CCCn2cc(-c3ccc(F)cc3)nn2)n1 | 100 to 103
38 | Brc1ccc2sc(-c3ccccc3)c(N3CCN(Cc4ccccc4)CC3)c2c1 | 156 to 157
39 | CCN(CC)CCNC(=O)c1cccc2nc3cc(Br)ccc3nc12 | 107 to 109
40 | COc1ccccc1-n1c(=O)[nH]c2c(C(N)=O)nc(-c3ccc(C(N)=O)cc3)nc21 | > 350
41 | COc1cc(C(=O)O)ccc1Cn1cc(/C=C/C(=O)N(C)C)c2ccc(/C=C/C(=O)N(C)C)cc21 | 270 to 272
42 | CCc1cccc(-c2[nH]c(C(C)C)nc2-c2cccc(-c3ccc(S(C)(=O)=O)cc3)c2)n1 | 108 to 110
43 | CC(=O)c1cc(Br)c(OCCCBr)c(Br)c1 | 87 to 88
44 | CC(=O)NCC1CN(c2ccc(N3CCN(C(=O)CCC(=O)c4ccc(CN5CCOCC5)cc4)CC3)c(F)c2)C(=O)O1 (configuration not stated) | 178 to 179
45 | CCOC(=O)c1ccc(SCC)c(-c2cc(C)no2)c1C | 39 to 40
46 | O=C(Nc1ccn[nH]1)c1cccnc1Cl | 163
47 | CN(c1cccc2cc(C3=NCC(CN4CCOCC4)S3)[nH]c12)S(=O)(=O)c1cccs1 (configuration not stated) | 139 to 140
48 | O=c1nc(-c2cccc(C(F)(F)F)c2)sc2ccccc12 | 115
49 | Cc1nc2ccc3c(c2o1)OC(CN1CCC(O)(c2cccc(C(F)(F)F)c2)CC1)CO3 (configuration not stated) | 148 to 151
50 | CC(C)(C)OC(=O)CCc1ccc(Cc2nnn(C(C)(C)C)n2)cc1 | 54 to 55

Row | SMILES | melting point [°C]
51 | COc1ccc2c(c1)sc1nc(C=O)cn12 | 214 to 215
52 | CC(=O)c1cc(NS(C)(=O)=O)ccc1F | 120 to 123
53 | CCCOc1nc(-c2ccco2)c2ncn(Cc3ccc(OC)cc3)c2n1 | 119
54 | CC(C)(C)c1ccc(C=O)cc1NC(=O)CC1c2ccccc2Oc2ccccc21 | 172 to 174
55 | CCC(Oc1cc(C)ccc1C)C(=O)OC1CC(O)C=C2C=CC(C)C(CCC3CC(O)CC(=O)O3)C21 (mixture of isomers) | 138 to 140
56 | O=c1[nH]c2ccc(C3=NOC(CCN4CCC(Cc5ccc(F)cc5)CC4)C3)cc2o1 (configuration not stated) | 254 to 258
57 | COc1cc(-c2cc(=O)c3ccc(OCC(O)CNC(C)C)cc3o2)cc(OC)c1OC (configuration not stated) | 106 to 107
58 | CCCCc1nn(C(C)C(=O)NC)c(=O)n1Cc1ccc(-c2ccccc2-c2nnn[nH]2)cc1 (configuration not stated) | 153 to 155
59 | COc1cc(N)c(Cl)cc1C(=O)NCC1CCN(CCCCCCNC(=O)c2ccccc2)CC1 | 159 to 162
60 | COc1nc(NC(=S)NS(=O)(=O)c2ccccc2)nc(OC)n1 | 148 to 150
61 | COC1(c2cc(F)cc(Sc3cnc4c(c3)OCC(=O)N4C)c2)CCOCC1 | 127 to 128
62 | O=C(Cn1c(-c2ccc(Cl)cc2)nc2cccnc21)NCC1CC1 | 228 to 229
63 | CC(C)(c1ccc(Oc2ccc([N+](=O)[O-])cc2F)cc1)c1cccc(C(C)(C)c2ccc(Oc3ccc([N+](=O)[O-])cc3F)cc2)c1 | 151 to 152
64 | O=Cc1ccc(Oc2ccc([N+](=O)[O-])cc2)cc1 | 101 to 104
65 | CSc1cc(CCC(=O)O)cc(-c2nc(=O)c3ccccc3s2)n1 | 236
66 | O=CCCCCC(c1cc(F)ccc1F)S(=O)(=O)c1ccc(Cl)cc1 (configuration not stated) | 135 to 136
67 | CC(=O)Nc1cccc2c1CCC(NC(C)c1ccccc1)C2 (configuration not stated) | 158
68 | CC(C)S(=O)(=O)N1CCN(Cc2ccc(COc3cccc4c3CN(C3CCC(=O)NC3=O)C4=O)cc2)CC1 (configuration not stated) | 233 to 235
69 | O=C(OC1CCN(Cc2ccccc2)CC1)c1ccc(Br)cc1 | 71 to 72
70 | OCc1c(Br)c(Br)c(Br)c(CO)c1Br | 248 to 252
71 | CC(C)(C)c1ccc2[nH]c(=O)c(-c3nnn[nH]3)cc2c1 | 280 to 286
72 | O=c1[nH]c2cc(Cl)ccc2c(O)c1-c1ccc2c(c1)OCO2 | > 350
73 | CC(C)n1nc(-c2c(-c3ccccc3)nn3ccc(OCc4ccccc4)cc23)ccc1=O | 168
74 | Nc1[nH]nc(-c2ccc(F)cc2)c1-c1ccncc1 | > 250
75 | COc1ccc2c(c1)C(=O)c1cccc(OC(C)C)c1-2 | 89 to 90

Row | SMILES | melting point [°C]
76 | COCc1nc(-c2ccc(Br)c(C)c2)no1 | 52 to 53.5
77 | O=CNC1Cc2cccc3c2N(CCC3)C1=O (configuration not stated) | 140 to 143
78 | CCc1nn(Cc2cccnn2)c(C(N)=O)c1NC(=O)c1cc(S(C)(=O)=O)ccc1OCC(C)C | 196 to 200
79 | Cc1ccccc1-c1c(N)c(=O)oc2cc3c(cc12)CCC3 | 275 to 276
80 | CCCn1c(=O)c(-c2ccccc2)c2n(c1=O)CCC(Sc1ccccc1)S2 (configuration not stated) | 126 to 127
81 | C=CCN1N=C(c2ccc3c(c2)N(S(C)(=O)=O)CCO3)CCC1=O | 153 to 155
82 | Cc1ccc(Sc2ccccc2)c(C(=O)O)c1 | 156 to 157
83 | N#Cc1ccc(C(=O)N=C=S)cc1 | 87.5 to 88.5
84 | COc1c(N)cc(-c2c3ccccc3c(Br)c3sc(C)c(C)c23)cc1Br | 198 to 200
85 | CC1(C)OC(=O)Nc2ccc(-c3ccccc3-c3ncsn3)cc21 | 214 to 216
86 | CCc1c(-c2ccc(OCc3ccccc3)cc2)c2cc(C(=O)OC)c3cccc1n32 | 129 to 131
87 | CCN(C(=O)N1CCN(c2cc(C)cc(C)c2)CC1)c1nc2ccccc2nc1OC | 145 to 147
88 | Cc1ccc(C(OC2CCN(CC(=O)O)CC2)c2ccccc2)cc1 (configuration not stated) | 73.5 to 75
89 | O[C@@H]1CNC[C@H](c2ccc(C(F)(F)F)cc2)C1 (relative stereo) | 189 to 192
90 | CC(=O)Oc1c(C(C)(C)C)cc2c(c1C(C)(C)C)C=CS2(=O)=O | 195
91 | CCCNC(=O)Nc1ccc(N(C)C)cc1C(=O)NCC1CCN(C(c2ccccc2)c2ccccc2)CC1 | 199 to 201
92 | O=C(O)CCCCCN1C(=O)c2cccc([N+](=O)[O-])c2C1=O | 144
93 | Oc1c2c(nn1-c1ncccc1C(F)(F)F)CCc1ccccc1-2 | 174 to 175
94 | O=C(OC1N=C(c2ccccc2)c2ccccc2NC1=O)c1cc2ccccc2[nH]1 (racemic) | 271 to 273
95 | CCOP(=O)(OCC)N1CC2(C(=O)OC)COc3cc(C(F)(F)F)ccc3C2=N1 (configuration not stated) | 85 to 86
96 | C[Si](C)(C)C(CN)CC(=O)O (configuration not stated) | 199 to 201
97 | CC(C)(C)OC(=O)N1C2CCC1CN(CC(O)COc1ccc(C#N)cc1)C2 (configuration not stated) | 98 to 104

Source: a melting point compilation (Tetko et al.; mined from patent text by program, amines drawn as free bases though some values may be those of a salt)
